Publication PMC5341405, “Lapachol, a compound targeting pyrimidine metabolism, ameliorates experimental autoimmune arthritis” (Arthritis Research & Therapy, 2017)
Like-named read-outs stand apart in the source and are kept apart here.

Key:
[1] = Pharmacokinetics after i.v. administration; assay type: in vivo, Wistar rats; settings: for Vd: read-out: Vdss
Protocol: (§1) For administration to Wistar rats, LAP was dissolved in DMSO:Tween 80:glucose 5% in a proportion of 15:5:80 (v/v/v), resulting in a solution of 1 mg/ml (for intravenous (i.v.) administration) and another of 5 mg/ml (for oral administration). LAP was administered to rats as an i.v. bolus dose at 2 mg/kg (n = 7) and at two oral doses of 10 (n = 8) and 25 mg/kg (n = 6). LAP salt was administered as i.v. (2 mg/kg, n = 6) and oral doses (30 mg/kg equivalent to 27.5 mg/kg of LAP, n = 8). The i.v. doses were injected into the lateral tail vein, and oral doses were given by gavage. The doses were chosen based on previous toxicological and pharmacodynamic studies. At predetermined time points (30 min before dosing and at 0.08, 0.25, 0.5, 1, 2, 4, 6, 8, 12, and 24 h) after LAP i.v. administration, blood samples (200–250 μl) were withdrawn into heparinized tubes via puncture of the lateral tail vein, opposite to the vein used for drug dosing. The same procedure was carried out after oral administration of LAP, with blood sampling at 0.25, 0.5, 1, 1.5, 2, 3, 6, 12, 24, and 30 h. After LAP sodium salt i.v. and oral dosing, blood samples were harvested up to 10 and 12 h, respectively. Plasma was obtained by centrifugation of blood samples (6800 × g, at 4 °C for 10 min) and stored at –80 °C until analysis by UPLC-MS/MS.
(§2) LAP and LAP sodium salt pharmacokinetic parameters after i.v. and oral administration were determined from individual plasma profiles by a noncompartmental approach (NCA). The peak plasma concentration (Cmax) and the time of maximum concentration (Tmax) were obtained by visual inspection of the data from the plasma concentration–time curve after oral dosing. Pharmacokinetic parameters such an elimination rate constant (λ), area under the curve (AUC0–∞), clearance (CLtot), half-life (t1/2), volume of distribution (Vdss), mean residence time (MRT), and bioavailability (Fabs) were determined using classical equations. The compartmental analyses were performed using SCIENTIST v.2.0.1 software (MicroMath®, USA). One- and two-compartment models with or without weighting schemes were evaluated. The best model to fit the data was chosen based on the random distribution of residuals, the correlation coefficient, and the model selection criterion (MSC) given by the software.
(§3) The individual plasma profiles of LAP and LAP sodium salt after i.v. administration were best described by a two-compartmental open model. Plasma profiles after oral administration with two different doses of LAP and one dose of LAP sodium salt were best described by the one-compartmental model.
(§4) LAP concentration in plasma samples was determined by a validated (FDA, US Food and Drug Administration, 2001) UPLC-MS/MS method. Analyses were run on an Acquity UPLC BEH (Waters Acquity™) C18 column (2.1 × 50 mm, 1.7 μm particle size), with a flow of 300 μl/min at 35 °C. A gradient constituted of water (A) and acetonitrile (B) acidified with 0.1% acetic acid was used as follows: 0 min (90% A), 1 min (75% A), 7 min (50% A), 8.5 min (0% A) and 9.5 min (100% A). For the triple quadrupole, MS parameters were set as follows: capillary voltage (2.20 kV); extractor (3.0 V) source temperature (150 °C), desolvation temperature (300 °C), cone gas flow (50 l/h), and desolvation gas flow (700 l/h). For quantification, a multiple reaction monitoring method (MRM) was applied. For LAP, the transition of m/z 243 > 187 using cone energy of 24 V and collision energy of 19 V was determined as most appropriate for quantification (Calibration curves between 1 and 20,000 ng/ml of LAP, R > 0.99, low quantification limit of 1 ng/ml, and detection limit of 0.1 ng/ml).
(§5) A total of 200 μl cold acetonitrile containing internal standard (2-methyl-amino-lapachol) at 5 μg/ml and 0.05% trifluoroacetic acid was added to 100 μl of plasma and vortexed for 20 s. Precipitated protein was removed by centrifugation (6800 × g at 4 °C for 10 min). […]

[2] = test system: human CD4 T cells; test: Annexin-V/propidium iodide staining for apoptotic cell death; assay type: cell-based; settings: human CD4 T cells, 10, 30, and 100 μM
Protocol: We next assessed the antiproliferative effect of LAP. To this end, freshly isolated mouse CD4 T cells were labelled with Dye Efluor 670 and stimulated with anti-CD3/CD28 in the presence of LAP or LEF (10, 30, and 100 μM) for 4 days. […] We also investigated the effect of LAP in human CD4 T cells isolated from the peripheral blood of healthy donors. […] Additionally, we performed annexin-V/propidium iodide (PI) staining of human CD4 T cells treated with LAP or LEF to assess apoptotic cell death. […] Thus, the reduction of T-cell proliferation by LAP below 100 μM was primarily due to inhibition of the proliferative response rather than a reduction of cellular viability by toxicity.

[3] = Pharmacokinetics after oral administration; assay type: in vivo, Wistar rats; settings: for AUC(0-inf) / k el / Cmax / MRT / Tmax / half-life: Wistar, rat, plasma; for AUC(0-inf): po; for k el: read-out: Ke (converted)
Protocol: as §1, §2, §3, §4, §5

[4] = test system: human keratinocytes; parameters: method as in PMID 10479319; settings: in vitro; cited from earlier work
[5] = Wistar, rat, plasma, iv, 2 mg/kg, 2 mg/kg i.v., 2-Comp
[6] = Wistar, rat, plasma, iv, 2 mg/kg, 2 mg/kg i.v., NCA

`CC(C)=CCC1=C(O)C(=O)c2ccccc2C1=O` [LAP, 2-hydroxy-3-(3methyl-2-butenyl)-1,4-naphthoquinone] showed a CLtot ([1]; 2 mg/kg i.v., 2-Comp) of 0.667 ± 0.167 mL/min/kg, a Vc ([1]; 2 mg/kg i.v., 2-Comp) of 0.11 ± 0.03 L/kg and an a ([1]; 2 mg/kg i.v., 2-Comp) of 10.0 ± 4.1 µg/mL. The b ([1]; 2 mg/kg i.v., 2-Comp) was 8.8 ± 3.1 µg/mL, the t1/2ß ([1]; 2 mg/kg i.v., 2-Comp) was 3.7 ± 0.5 h and the t1/2α ([1]; 2 mg/kg i.v., 2-Comp) was 0.6 ± 0.4 h. It also gave a ß ([1]; 2 mg/kg i.v., 2-Comp) of 0.19 ± 0.03 h⁻¹, a α ([1]; 2 mg/kg i.v., 2-Comp) of 1.76 ± 1.52 h⁻¹ and a CLtot ([1]; 2 mg/kg i.v., NCA) of 0.667 ± 0.167 mL/min/kg. The λ ([1]; 2 mg/kg i.v., NCA) was 0.18 ± 0.04 h⁻¹, the AUC(0-inf) [1, 5] was 56.4 ± 21.6 µg·h/mL and the Vd [1, 5] was 0.17 ± 0.03 L/kg. The AUC(0-inf) [1, 6] was 56.1 ± 20.1 µg·h/mL, the MRT [1, 6] was 5.3 ± 1.2 h and the Vd [1, 6] was 0.19 ± 0.03 L/kg. The half-life ([1]; Wistar, rat, plasma, iv, 2 mg/kg, 2 mg/kg i.v., NCA, read-out: t1/2 (converted)) was 4.1 ± 1.1 h, the linearity of pharmacokinetics ([1]; dose range investigated 2–25 mg/kg (i.v. and oral)) was “Linear pharmacokinetics” and the total clearance ([1]; intravenous administration, rats) was 0.67 ± 0.17 mL/min/kg. The “toxicity (apoptotic cell death, annexin-V/PI)” value [2] was “only the highest concentration of LAP (100 μM) was toxic”, the Ka ([3]; 10 mg/kg oral LAP, 1-Comp) was 2.61 ± 0.85 h⁻¹ and the t1/2ß ([3]; 10 mg/kg oral LAP, 1-Comp) was 4.2 ± 0.3 h. The Fabs ([3]; 10 mg/kg oral LAP, NCA) was 77%, the l ([3]; 10 mg/kg oral LAP, NCA) was 0.16 ± 0.01 h⁻¹ and the Ka ([3]; 25 mg/kg oral LAP, 1-Comp) was 2.93 ± 0.79 h⁻¹. The Vdss ([3]; 25 mg/kg oral LAP, 1-Comp) was 0.24 ± 0.04 L/kg, the t1/2ß ([3]; 25 mg/kg oral LAP, 1-Comp) was 4.4 ± 0.6 h and the Fabs ([3]; 25 mg/kg oral LAP, NCA) was 65%. The l ([3]; 25 mg/kg oral LAP, NCA) was 0.19 ± 0.03 h⁻¹, the AUC(0-inf) ([3]; 10 mg/kg, 10 mg/kg oral LAP, 1-Comp) was 237 ± 20.2 µg·h/mL and the AUC(0-inf) ([3]; 10 mg/kg, 10 mg/kg oral LAP, NCA) was 217 ± 22 µg·h/mL. It also gave an AUC(0-inf) ([3]; 25 mg/kg, 25 mg/kg oral LAP, 1-Comp) of 434 ± 79.7 µg·h/mL, an AUC(0-inf) ([3]; 25 mg/kg, 25 mg/kg oral LAP, NCA) of 449 ± 78.1 µg·h/mL and a k el ([3]; 10 mg/kg oral LAP, 1-Comp) of 4.72e-05 s⁻¹. It also gave a Cmax ([3]; 10 mg/kg oral LAP, NCA) of 31600 ± 3800 ng/mL, an MRT ([3]; 10 mg/kg oral LAP, NCA) of 7.2 ± 0.6 h and a Tmax ([3]; 10 mg/kg oral LAP, NCA) of 1.2 ± 0.3 h. It also gave a half-life ([3]; 10 mg/kg oral LAP, NCA) of 3.2 ± 0.2 h, a k el ([3]; 25 mg/kg oral LAP, 1-Comp) of 4.44e-05 s⁻¹ and a Cmax ([3]; 25 mg/kg oral LAP, NCA) of 65600 ± 10600 ng/mL. It also gave an MRT ([3]; 25 mg/kg oral LAP, NCA) of 7.2 ± 0.7 h, a Tmax ([3]; 25 mg/kg oral LAP, NCA) of 1.3 ± 0.4 h and a half-life ([3]; 25 mg/kg oral LAP, NCA) of 3.6 ± 0.5 h. For the same molecule, the “proliferation of human keratinocytes” value [4] was “can reduce proliferation of the human keratinocytes”.
